PMC8624998, “Synthesis and Antiproliferative Evaluation of 3-Chloroazetidin-2-ones with Antimitotic Activity: Heterocyclic Bridged Analogues of Combretastatin A-4” (Pharmaceuticals, 2021)

Assays:
[1] = system: Bcl-2; test: Western blot analysis; type: cell-based, human; settings: MCF-7, 0.05, 0.1 and 0.5 μM, 48 or 72 h
From the text: (§1) The apoptosis regulating proteins Bcl-2 and Mcl-1 were next investigated. The anti-apoptotic or pro-survival Bcl-2 protein is also a member of the Bcl-2 family. It prevents the release of a pro-apoptotic AIF (apoptosis inducing factor) and cytochrome c from the mitochondria into the cytoplasm and prevents apoptosis by sequestering caspases (apoptosis promoters). […] (Figure 9). Mcl-1 protein (an induced myeloid leukaemia cell differentiation protein) is another key anti-apoptotic member of the Bcl-2 family and is localised in the mitochondrial outer membrane. It binds and sequesters the pro-apoptotic Bax/Bak proteins and, thus, prevents the release of cytochrome c. Overexpression of the anti-apoptotic factors Mcl-1, Bcl-2 and Bcl-xL in acute myeloid leukaemia and acute lymphocytic leukaemia may be associated dysregulation of apoptosis. […] (Figure 10). Apoptosis can be triggered by a reduction in the expression levels of Mcl-1 and Bcl-2 (e.g., by drug treatment). […]
(§2) MCF-7 cells were seeded at a density of 1 × 10^5 cells/flask in T25 flasks. […] Equal quantities of protein (as determined using a BCA assay) were resolved by SDS-PAGE (12%) followed by transfer to PVDF membranes. […] Proteins were detected using enhanced chemiluminescent Western blot detection (Clarity Western ECL substrate) (Bio Rad) on the ChemiDoc MP System (Bio Rad). […]

[2] = system: Mcl-1; test: Western blot analysis; type: cell-based, human; settings: MCF-7, 0.05, 0.1 and 0.5 μM, 48 or 72 h
From the text: as §1, §2

[3] = system: OVCAR-8; test: NCI-60 5 dose screen, Ovarian Cancer; type: cell-based; settings: Homo sapiens
[4] = system: CCRF-CEM; test: NCI-60 5 dose screen, leukaemia; type: cell-based; settings: Homo sapiens

SMILES: COc1ccc(C2C(Cl)C(=O)N2c2cc(OC)c(OC)c(OC)c2)cc1O (stereo not shown) [Compound 10n, 3-Chloro-4-(3-hydroxy-4-methoxy-phenyl)-1-(3,4,5-trimethoxyphenyl)azetidin-2-one]
- level of anti-apoptotic protein Bcl-2 [1]: downregulated in a dose-dependent manner
- level of anti-apoptotic protein Mcl-1 [2]: downregulated in a dose-dependent manner

SMILES: CCSc1ccc(C2C(Br)C(=O)N2c2cc(OC)c(OC)c(OC)c2)cc1 (stereo not shown) [Compound 16d, 3-Bromo-4-(4-(ethylthio)phenyl)-1-(3,4,5-trimethoxyphenyl)azetidin-2-one]
- GI50 [3]: 403 nM
- GI50 [4]: 278 nM
